The record followed here is publication PMC6222516 (Molecules : A Journal of Synthetic Chemistry and Natural …, 2018).

One assay concerns the target adenosine A2A receptor (Homo sapiens, UniProt P29274). Conditions: read-out: % Inhib. 10 μM A2A.
For another assay, the target named is T1, adenosine A3 receptor (Homo sapiens, UniProt P0DMS8).
T1 sequence (P0DMS8 1-318): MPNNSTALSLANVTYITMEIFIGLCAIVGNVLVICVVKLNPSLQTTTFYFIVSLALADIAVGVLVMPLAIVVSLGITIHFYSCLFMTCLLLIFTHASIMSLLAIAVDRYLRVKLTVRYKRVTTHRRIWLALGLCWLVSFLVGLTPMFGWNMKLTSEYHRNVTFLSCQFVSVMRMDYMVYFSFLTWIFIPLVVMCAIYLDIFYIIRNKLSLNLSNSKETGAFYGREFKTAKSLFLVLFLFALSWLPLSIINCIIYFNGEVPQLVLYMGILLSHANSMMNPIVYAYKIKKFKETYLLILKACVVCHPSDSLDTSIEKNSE
In words: Radioligand competition binding assay, adenosine A3 receptor ([3H]-NECA). Further details: PEI (potency efficiency index), ligand efficiency for A3 receptor: dose or concentration left out as unconfirmed. Particulars: for PEI (potency efficiency index), ligand efficiency for A3 receptor: PEI = (inhibition, ratio) / (MW, kD); for inhibition at 10 µM: read-out: % Inhib. 10 μM A3.

adenosine A2A receptor, sequence (P29274 whole entry): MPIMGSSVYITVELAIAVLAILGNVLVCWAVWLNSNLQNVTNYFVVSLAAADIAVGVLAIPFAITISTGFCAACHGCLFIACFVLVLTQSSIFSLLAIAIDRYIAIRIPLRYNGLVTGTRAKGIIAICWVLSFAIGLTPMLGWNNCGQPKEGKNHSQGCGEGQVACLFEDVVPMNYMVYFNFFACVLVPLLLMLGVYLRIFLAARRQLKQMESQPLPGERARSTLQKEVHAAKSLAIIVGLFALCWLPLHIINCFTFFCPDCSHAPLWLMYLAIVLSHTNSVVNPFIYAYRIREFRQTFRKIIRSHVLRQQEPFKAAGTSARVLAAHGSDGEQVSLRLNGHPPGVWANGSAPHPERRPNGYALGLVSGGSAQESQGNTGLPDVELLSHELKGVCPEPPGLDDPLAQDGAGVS

Regarding `Nc1ncnc2c1ncn2[C@H]1C[C@H](O)[C@@H](CO)O1` [2′-deoxyadenosine, reference compound], the inhibition at 10 µM on adenosine A2A receptor stood at 3 ± 1%; on adenosine A3 receptor, 5 ± 1%. Also, the “PEI (potency efficiency index), ligand efficiency for A3 receptor” value (“PEI (potency efficiency index)” below) on adenosine A3 receptor was 0.20.
As to `OC[C@H]1O[C@@H](n2cnc3c(NCCCc4ccccc4)ncnc32)[C@H](O)[C@@H]1O` [Compound 4], at adenosine A2A receptor, the inhibition at 10 µM was found to be 32 ± 1%. Further, at adenosine A3 receptor, the Ki turned out to be 7.5 nM; the “PEI (potency efficiency index)” value was found to be 2.54; the inhibition at 10 µM was determined as 98 ± 1%.
Take `Nc1ncnc2c1ncn2[C@@H]1O[C@H](CO)[C@@H](O)[C@H]1OCOCCCc1ccccc1` [Compound 12, 2′-O-(3-Phenylpropyleneoxymethyl)-adenosine]: the inhibition at 10 µM at adenosine A2A receptor worked out at 2 ± 1%. Besides, on adenosine A3 receptor, the Ki stood at 2210 nM; the “PEI (potency efficiency index)” value is 1.61; the inhibition at 10 µM was determined as 67 ± 1%.
On to `CC[C@@H]1Cn2c(c3nc(-c4cc(Cl)cc(Cl)c4Cl)nc-3n(C)c2=O)N1.Cl` [PSB 10 hydrochloride, reference compound], for which the “PEI (potency efficiency index)” value on adenosine A3 receptor is on record as 2.51.
